Patent US20260103474A1, “NOVEL COMPOUNDS FOR THE DIAGNOSIS OF TDP-43 PROTEINOPATHIES” (AC IMMUNE SA, priority 2022, published 2026)
Read-outs that look alike come from different tables or passages of the source. Each block holds one compound with its values, some of them ahead of it.

Experiments:
[1] = PK studies in healthy monkey (PET); type: in vivo; conditions: iv, Non-Human Primate; for Time of brain entry post injection / Washout: peak to half peak: whole brain
Method: Non-Human Primate (NHP) was injected intravenously (iv) with the [^18F]-labeled Compound 1 ([^18F]Compound 1) (4.2 mCi) or with the [^18F]-labeled Compound 17 ([^18F]-Compound 17) (5.3 mCi). Monkey PET scans were performed using a Siemens Focus 220. PET acquisition started immediately before the radioactive dose was injected. Images were generated as dynamic scans for 120 minutes with head focused.

[2] = molecular target: human FTD Type A sarkosyl-insoluble brain extracts (Homo sapiens, UniProt Q13148); assay: Kd determination by micro-radiobinding assay on FTD Type A extracts; type: binding; conditions: tritiated compound 1.29 to 300 nM
Method: (§1) Human brain extracts were prepared as described in Laferriere et al., 2019, Nature Neurosc. A sample of brain tissue (frontal or temporal cortex) was homogenized at 1:4 (w/v) ratio in the homogenization-solubilization (HS) buffer at 4° C. using tissue homogenizer (Precellys) with CKmix homogenization tubes. The following sequence was used for homogenization: 3 cycles of 30 seconds at 5000 rpm (with 15 seconds pause between each cycle). Homogenized samples were aliquoted and stored at −80° C. in 1.5 mL low protein binding tubes.
(§2) Brain homogenates were thawed on ice and resuspended in HS buffer to obtain a final concentration of 2% sarkosyl, 1 unit/μL Benzonase and 1 mM MgCl2. The samples were then incubated at 37° C. under constant shaking at 600 rpm on a thermomixer for 45 minutes (min). The supernatants were collected in a new tube (sarkosyl-soluble fraction, S1). The pellet was resuspended in 1000 μL of myelin floatation buffer and centrifuged at 20,000 g for 60 min at 4° C. The supernatant was carefully removed to remove all the floating lipids. This step was repeated if all the lipids could not be removed in a single step. The pellet was subsequently washed with Phosphate-Buffered Saline (PBS) and centrifuged for 30 min at 20,000 g at 4° C. The final pellet was resuspended in 200 μL PBS and stored at −80° C. (sarkosyl-insoluble fraction). The samples were analyzed by immunoblotting in denaturing conditions.
Human FTD sarkosyl-insoluble brain extracts were spotted onto microarray slides. The slides were incubated with [^3H]-Compounds 1, 7, 8, 9, 15, 16 and 17 in a range of concentrations, varying from 1.29 to 300 nM. After incubation, slides were washed and scanned by a real-time autoradiography system (BeaQuant, ai4R). Quantification of the signal was performed by using the Beamage image analysis software (ai4R). Non-specific signal was determined with an excess of non-radiolabeled compound 1, 7, 8, 9, 15, 16 and 17 (1 μM), respectively, and specific binding was calculated by subtracting the non-specific signal from the total signal.
The Kd (Dissociation constant) and R^2 (parameter ranging between 0.0 and 1.0 that quantifies the goodness of fit, and the best curve fit obtained with value of 1.0) were obtained by fitting the specific binding data with non-linear regression analysis, using a one-site specific binding model in GraphPad Prism8.

[3] = molecular target: T1, Human brain derived TDP-43 aggregates (Homo sapiens, UniProt Q13148); assay: Micro-radiobinding competition assay for binding affinity to TDP-43; conditions: for Ki: 0.24 nM to 2 μM vs tritiated reference ligand at 40 nM; for Human brain derived TDP-43 aggregates Mean % competition at 250 nM: non-radiolabeled compound at 250 nM vs tritiated reference ligand at 40 nM; for Human brain derived TDP-43 aggregates Mean % competition at 250 nM / Human brain derived TDP-43 aggregates Mean % competition at 2 μM: FTD sarkosyl-insoluble brain extracts; for Human brain derived TDP-43 aggregates Mean % competition at 2 μM: non-radiolabeled compound at 2 μM vs tritiated reference ligand at 40 nM
T1 construct: Human FTD sarkosyl-insoluble brain extracts were spotted onto microarray slides
Method: as §1, §2
Human FTD sarkosyl-insoluble brain extracts were spotted onto microarray slides. The slides were incubated with a tritiated reference ligand at 40 nM, and the example compounds (non-radiolabeled) at 2 μM and 250 nM. […] After incubation, slides were washed and scanned by a real-time autoradiography system (BeaQuant, ai4R). Quantification of the signal was performed by using the Beamage image analysis software (ai4R). Non-specific signal was determined with an excess of non-radiolabeled reference compound (2 μM) and specific binding was calculated by subtracting the non-specific signal from the total signal. Competition was calculated as percent, where 0% was defined as the specific binding in the presence of vehicle and 100% as the values obtained in the presence of excess of the non-radiolabeled reference compound. Ki values were calculated in GraphPad Prism8 by applying a nonlinear regression curve fit using a one site, specific binding model. Measurements were performed with at least two technical replicates in the two-concentration competition experiment and with one technical replicate in the experiments including a range of concentrations. For compounds tested in more than one experiment, the mean of the replicates or Ki values in independent experiments is reported.

Abeta = molecular target: T2, Abeta (Homo sapiens, UniProt P05067); assay: Radiobinding competition assay using Abeta reference compound on AD insoluble fraction of brain homogenates; type: binding; conditions: against [3H]Abeta reference compound
T2 construct: an AD donor with confirmed burden of Tau and Abeta aggregates; from tissue; host or cells: frontal cortex of a human AD donor, Triton/sucrose-insoluble fraction
Method: Approximately 4 g of frozen tissue block from frontal cortex brain region was used from an AD donor with confirmed burden of Tau and Abeta aggregates. The tissue was homogenized in three volumes (1:3 w/v) of high salt buffer (50 mM Tris-HCl pH 7.5, 750 mM NaCl, 5 mM EDTA) supplemented with protease inhibitors (Complete; Roche 11697498001) at 4° C. with a glass Dounce homogenizer. The homogenate was transferred into polycarbonate centrifuge bottles (16×76 mm; Beckman 355603) and centrifuged at 100,000×g (38,000 RPM) in an ultracentrifuge (Beckman, XL100K) for 60 minutes at 4° C. using a pre-cooled 70.1 rotor (Beckman, 342184). Pellets were resuspended in high salt buffer supplemented with 1% Triton X-100 and homogenized at 4° C. with a syringe. The homogenates were centrifuged again at 100,000×g (38,000 RPM, 70.1 rotor) for 60 minutes at 4° C. Pellets were resuspended in high salt buffer supplemented with 1% Triton X-100 and 1 M sucrose and homogenized at 4° C. with a syringe. The homogenates were centrifuged at 100,000×g (38,000 RPM, 70.1 rotor) for 60 minutes at 4° C. The resulting pellets containing insoluble fraction were resuspended in PBS (1:2 w/v relative to starting tissue weight), aliquoted and stored at −80° C. until use.
The reaction was performed in assay buffer (50 mM Tris pH 7.5 in 0.9% NaCl, 0.1% BSA) and incubated for two hours at room temperature (RT). Samples in duplicate were then filtered under vacuum in GF/C filter plates (PerkinElmer) to trap the aggregates with the bound radioligand and washed with 100 μL ice-cold 50 mM Tris pH 7.5. The GF/C filters were then dried and scintillation liquid (UltimateGold, PerkinElmer, 6013151) was added in each well. The filters were analyzed on a Microbeta2 scintillation counter (PerkinElmer). Values for the maximal signal were obtained in the absence of non-radiolabeled compound, while 100% displacement was obtained using 1 μM of non-radiolabeled reference compound. Ki values were calculated by nonlinear regression, using a one site—fit Ki model in Prism V7 (GraphPad).

TDP-43 aggregates = TDP-43 aggregates (Homo sapiens, UniProt Q13148); assay: Classical autoradiography in brain sections from patients with FTD; type: binding
Method: All tissues were collected from donors for or from whom a written informed consent for a brain autopsy and the use of the material and clinical information for research purposes had been obtained by the respective brain banks. All samples were anonymized and coded. Frozen brain tissue blocks with confirmed TDP-43 pathology upon autopsy were processed using a cryotome to generate sections of 10 μm in thickness and mounted on glass slides. Sections were kept at −80° C. until use.
Brain sections were fixed for 15 minutes at 4° C. with 4% formaldehyde on ice and washed three times for eight minutes with 1×PBS at RT. Sections were blocked in assay buffer for 30 minutes (50 mM Tris-HCl, 0.9% NaCl+0.1% BSA). Cold test compound (Compound 1, Compound 8 or Compound 17) was diluted in assay buffer to 4 μM and applied on half of the sections for 40 minutes at RT to determine non-specific binding. The remaining half of the sections were only incubated with assay buffer (total binding). Following this incubation, an equal volume of the corresponding tritiated compound (i.e. [^3H]-Compound 1, [^3H]-Compound 8 or [^3H]-Compound 17, respectively), diluted to 20 nM (for [^3H]-Compound 1 and [^3H]-Compound 8) or 10 nM ([^3H]-Compound 17) or increasing concentration from 0.1 to 200 nM (for [^3H]-Compound 1 and [^3H]-Compound 17), was added on sections and incubated for 2 hours at RT and then washed as follows: once in ice-cold 50 mM Tris-HCl pH 7.4 buffer for one minute, twice in ice-cold PBS for one minute, once in ice-cold 50 mM Tris-HCl pH 7.4 buffer for one minute and finally rinsed briefly in ice-cold distilled water.
Sections were subsequently dried under a stream of air and mounted with a copper-based adhesive strip. Bound radioactivity was quantified by exposing the slides in a real-time autoradiography system (Beaquant™ AI4R) for 2 hours, with measurement settings configured for tritium. Beavacq software (AI4R) was used to acquire the image which was subsequently quantified using Beamage image analysis software (AI4R). Specific binding (non-specific binding subtracted from total) and displacement (total binding divided by non-specific) were calculated. Bar graphs were generated using GraphPad Prism. For Kd determination on brain sections, the specific binding data were fitted with a non-linear regression analysis using a one-site specific binding model in GraphPad Prism.

[4] = total binding divided by non-specific binding, grey matter, self-block with cold compound
[5] = cells printed in μM, read-out: Ki on AD brain homogenates

T2 sequence (P05067 672-713 limits assumed): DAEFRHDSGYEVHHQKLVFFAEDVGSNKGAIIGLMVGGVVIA
human FTD Type A sarkosyl-insoluble brain extracts, sequence (Q13148 263-414 limits assumed): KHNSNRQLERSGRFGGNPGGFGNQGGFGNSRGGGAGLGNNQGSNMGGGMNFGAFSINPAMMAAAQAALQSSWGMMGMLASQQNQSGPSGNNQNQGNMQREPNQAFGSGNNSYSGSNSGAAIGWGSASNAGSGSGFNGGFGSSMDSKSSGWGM
T1 sequence (Q13148 261-414 limits assumed): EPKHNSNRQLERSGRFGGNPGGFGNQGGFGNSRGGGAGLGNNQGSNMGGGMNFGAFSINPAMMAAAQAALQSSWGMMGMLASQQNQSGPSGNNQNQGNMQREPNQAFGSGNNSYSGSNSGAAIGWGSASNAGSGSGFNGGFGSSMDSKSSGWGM
TDP-43 aggregates, sequence (Q13148 whole entry): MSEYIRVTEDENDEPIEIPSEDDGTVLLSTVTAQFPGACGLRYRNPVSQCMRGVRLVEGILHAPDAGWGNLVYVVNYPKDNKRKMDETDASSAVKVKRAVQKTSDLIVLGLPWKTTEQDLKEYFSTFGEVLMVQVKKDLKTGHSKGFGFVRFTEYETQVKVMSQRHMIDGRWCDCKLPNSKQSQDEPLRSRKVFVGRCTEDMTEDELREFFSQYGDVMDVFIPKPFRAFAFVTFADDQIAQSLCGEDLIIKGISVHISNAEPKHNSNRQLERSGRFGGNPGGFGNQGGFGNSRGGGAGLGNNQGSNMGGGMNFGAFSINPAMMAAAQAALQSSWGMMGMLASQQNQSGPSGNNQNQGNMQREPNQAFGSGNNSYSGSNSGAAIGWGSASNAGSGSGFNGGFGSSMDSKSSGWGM

SUVmax whole brain [1]: 2.7 SUVmax | Time of brain entry post injection [1]: 5.5 min | Washout: peak to half peak [1]: < 17 min
SMILES: O=C1c2sc(-c3ccc(N4CC[C@@H]([18F])C4)nc3F)nc2CCN1c1cccnc1 [[^18F]-Compound 1, fluorinated 2-[2-fluoro-6-[(3R)-3-fluoropyrrolidin-1-yl]-3-pyridyl]-5-(3-pyridyl)-6,7-dihydrothiazolo[5,4-c]pyridin-4-one]

Kd [2]: 39 ± 11 nM
SMILES: [3H]c1cc(N2CCc3nc(-c4cc([3H])c(N5CC[C@@H](F)C5)nc4F)sc3C2=O)ccn1 [[^3H]-Compound 7, Tritiated (R)-2-(2-fluoro-6-(3-fluoropyrrolidin-1-yl)pyridin-3-yl)-5-(pyridin-4-yl)-6,7-dihydrothiazolo[5,4-c]pyridin-4(5H)-one]

Kd [2]: 47 ± 8 nM
SMILES: [3H]c1cncc(N2CCc3nc(-c4cc([3H])c(N5CC[C@H](F)C5)nc4F)sc3C2=O)c1 [[^3H]-Compound 8, tritiated (S)-2-(2-fluoro-6-(3-fluoropyrrolidin-1-yl)pyridin-3-yl)-5-(pyridin-3-yl)-6,7-dihydrothiazolo[5,4-c]pyridin-4(5H)-one]

SUVmax whole brain [1]: 1.1 SUVmax | Time of brain entry post injection [1]: 4.5 min | Washout: peak to half peak [1]: < 13 min
SMILES: O=C1c2sc(-c3ccc(N4CCC(CO)CC4)nc3[18F])nc2CCN1c1cccnc1 [[^18F]-Compound 17, 2-(2-(fluoro-^18F)-6-(4-(hydroxymethyl)piperidin-1-yl)pyridin-3-yl)-5-(pyridin-3-yl)-6,7-dihydrothiazolo[5,4-c]pyridin-4(5H)-one]

Kd [2]: 24 ± 3 nM
SMILES: O=C1c2sc(-c3ccc(N4CC[C@H](F)C4)nc3F)nc2CCN1c1ncccn1 [[^3H]-Compound 16]

Kd [2]: 21 ± 7 nM
SMILES: [3H]c1cnc(N2CCc3nc(-c4cc([3H])c(N5CC[C@@H](F)C5)nc4F)sc3C2=O)nc1 [[^3H]-Compound 15, Tritiated 2-[2-fluoro-6-[(3R)-3-fluoropyrrolidin-1-yl]-3-pyridyl]-5-pyrimidin-2-yl-6,7-dihydrothiazolo[5,4-c]pyridine-4-one]

Ki [3]: 16 nM | Human brain derived TDP-43 aggregates Mean % competition at 250 nM [3]: 52% | Human brain derived TDP-43 aggregates Mean % competition at 2 μM [3]: 75% | Ki (Abeta; read-out: Ki (nM) on AD brain homogenates): 350 nM
SMILES: Nc1cc(N2CCc3nc(-c4ccc(N5CCCC5)nc4F)sc3C2=O)ccc1F [Compound 10, 5-(3-amino-4-fluorophenyl)-2-(2-fluoro-6-(pyrrolidin-1-yl)pyridin-3-yl)-6,7-dihydrothiazolo[5,4-c]pyridin-4(5H)-one]

SMILES: O=C1c2sc(-c3ccc(N4CC[C@H](F)C4)nc3F)nc2CCN1c1cccnc1 [Compound 8, (S)-2-(2-fluoro-6-(3-fluoropyrrolidin-1-yl)pyridin-3-yl)-5-(pyridin-3-yl)-6,7-dihydrothiazolo[5,4-c]pyridin-4(5H)-one]
Ki [3]: 73 nM | Human brain derived TDP-43 aggregates Mean % competition at 250 nM [3]: 55% | Human brain derived TDP-43 aggregates Mean % competition at 2 μM [3]: 73% | Displacement on FTLD-TDP type A and B compared to non-demented control (TDP-43 aggregates; classical autoradiography): increased displacement | cARG displacement on FTLD-TDP Type A case (TDP-43 aggregates; [4]): 3.0 | cARG displacement on FTLD-TDP Type B case (TDP-43 aggregates; [4]): 3.3 | cARG displacement on non-demented control (TDP-43 aggregates; [4]): 2.3 | Ki (Abeta; [5]): > 1000 nM

Human brain derived TDP-43 aggregates Mean % competition at 250 nM [3]: 57% | Human brain derived TDP-43 aggregates Mean % competition at 2 μM [3]: 84% | Ki (Abeta; [5]): > 1000 nM
SMILES: O=C1c2sc(-c3ccc(N4CC[C@@H](F)C4)nc3F)nc2CCN1c1cncnc1 [Compound 13]
